In patent US20180305332A1, “Bispiperidinyl Derivatives as Liver X Receptor Beta Agonists, Compositions, and Their Use” (Merck Sharp & Dohme Corp., priority 2015, published 2018):

Columns and labels:
[1] = target: T1, GST tagged LXRbeta LBD (ligand binding domain) (Homo sapiens, UniProt P55055); assay: LanthaScreen TR-FRET Liver X Receptor Coactivator Assay, LXR beta-LBD; assay type: biochemical; conditions: relative to reference T0901317; for EC50: Inflection Point (potency), co-activator recruitment, read-out: LXR beta IP; for Emax: activity at max dose (efficacy), read-out: LXR beta act @ max dose (%)
T1 construct: purchased Invitrogen pv4658.pps
T1 sequence (P55055 222-460 limits assumed): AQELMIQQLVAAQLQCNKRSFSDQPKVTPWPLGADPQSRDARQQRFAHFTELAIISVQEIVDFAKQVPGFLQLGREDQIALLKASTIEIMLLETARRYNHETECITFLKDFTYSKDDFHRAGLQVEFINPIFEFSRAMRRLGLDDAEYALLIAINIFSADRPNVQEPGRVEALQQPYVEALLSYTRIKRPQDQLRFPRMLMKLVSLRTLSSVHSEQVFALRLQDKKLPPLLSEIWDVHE
In short: (§1)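 Compound-induced coactivator recruitment measured by TR-FRET between a terbium anti-GST antibody bound to the GST-LBD (LXRα or LXRβ, human) and a fluorescein coactivator peptide, after incubation at room temperature. Potency (inflection point) and efficacy (Emax) referenced to T0901317.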

[2] = target: T2, GST tagged LXRalpha LBD (ligand binding domain) (Homo sapiens, UniProt Q13133); assay: LanthaScreen TR-FRET Liver X Receptor Coactivator Assay, LXR alpha-LBD; assay type: biochemical; conditions: relative to reference T0901317; for EC50 / LXR alpha IP (nM): Inflection Point (potency), co-activator recruitment; for EC50: read-out: LXR alpha IP; for Emax: activity at max dose (efficacy), read-out: LXR alpha act @ max dose (%)
T2 construct: purchased Invitrogen pv4655
T2 sequence (Q13133 209-447 limits assumed): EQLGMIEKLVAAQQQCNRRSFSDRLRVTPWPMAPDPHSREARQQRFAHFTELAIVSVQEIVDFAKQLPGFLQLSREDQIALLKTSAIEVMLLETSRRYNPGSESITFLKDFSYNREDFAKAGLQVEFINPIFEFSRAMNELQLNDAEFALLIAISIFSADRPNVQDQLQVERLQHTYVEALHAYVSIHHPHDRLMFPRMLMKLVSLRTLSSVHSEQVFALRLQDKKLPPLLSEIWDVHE
In short: as §1

Row | SMILES | EC50 [1] | Emax [1] | EC50 [2] | Emax [2] | LXR alpha IP (nM) [2]
1 | CC(C)C(O)(C(=O)N1CCC(C2CCN(c3ccc(C(=O)N(C)C)c(Cl)n3)CC2)CC1)C(C)C [Example B-2, 2-chloro-6-{1′-[2-hydroxy-3-methyl-2-(1-methylethyl)butanoyl]-4,4′-bipiperidin-1-yl}-N,N-dimethylpyridine-3-carboxamide] | 0.057 µM | 123% | 1.71 µM | 47% | –
2 | CCCCN(C)C(=O)c1ccc(N2CCC(C3CCN(C(=O)[C@](O)(c4ccccc4)C(F)(F)F)CC3)CC2)cc1Cl [Example E-59, N-butyl-2-chloro-N-methyl-4-{1′-[(2R)-3,3,3-trifluoro-2-hydroxy-2-phenylpropanoyl]-4,4′-bipiperidin-1-yl}benzamide] | 0.208 µM | 89% | 2.38 µM | 21% | –
3 | CN(C)C(=O)c1ccc(N2CCC(C3CCN(C(=O)C4(c5ccccc5)CCC4)CC3)CC2)nc1Cl [Example B-14, 2-chloro-N,N-dimethyl-6-{1′-[(1-phenylcyclobutyl)carbonyl]-4,4′-bipiperidin-1-yl}pyridine-3-carboxamide] | 0.073 µM | 114% | 1.23 µM | 43% | –
4 | CN(C)C(=O)c1ccc(N2CCC(C3CCN(C(=O)C(O)(c4ccccc4)C4CCC4)CC3)CC2)cc1Cl (centres unmarked) [Example A-51, 2-chloro-4-{1′-[cyclobutyl(hydroxy)phenylacetyl]-4,4′-bipiperidin-1-yl}-N,N-dimethylbenzamide] | 0.128 µM | 109% | 1.59 µM | 33% | –
5 | CC(C)C(O)(C(=O)N1CCC(C2CCN(c3ccc(C(=O)N(C)C)cc3Cl)CC2)CC1)C(F)(F)F [Example D-3, 3-chloro-4-{1′-[2-hydroxy-3-methyl-2-(trifluoromethyl)butanoyl]-4,4′-bipiperidin-1-yl}-N,N-dimethylbenzamide] | 0.273 µM | 118% | 1.57 µM | 67% | –
6 | CCC(F)(C(=O)N1CCC(C2CCN(c3ccc(C(=O)N(C)C)c(Cl)c3)CC2)CC1)c1ccccc1 (centres unmarked) [Example A-61, 2-chloro-4-[1′-(2-fluoro-2-phenylbutanoyl)-4,4′-bipiperidin-1-yl]-N,N-dimethylbenzamide] | 0.056 µM | 115% | 0.888 µM | 53% | –
7 | CN(C)C(=O)c1ccc(N2CCC(C3CCN(C(=O)C(C)(c4ccccc4)C(F)(F)F)CC3)CC2)cc1Cl (centres unmarked) [Example A-16, 2-chloro-N,N-dimethyl-4-[1′-(3,3,3-trifluoro-2-methyl-2-phenylpropanoyl)-4,4′-bipiperidin-1-yl]benzamide] | 0.014 µM | 109% | 0.861 µM | 33% | –
8 | CN(C)C(=O)c1ccc(N2CCC(C3CCN(C(=O)C4(c5cc(F)ccc5F)CCC4)CC3)CC2)cc1Cl [Example A-76, 2-chloro-4-(1′-{[1-(2,5-difluorophenyl)cyclobutyl]carbonyl}-4,4′-bipiperidin-1-yl)-N,N-dimethylbenzamide] | 0.374 µM | 87% | 2 µM | 31% | –
9 | CN(C)C(=O)c1ccc(N2CCC(C3CCN(S(=O)(=O)c4ccccc4C#N)CC3)CC2)cc1Cl [Example A-102, 2-chloro-4-{1′-[(2-cyanophenyl)sulfonyl]-4,4′-bipiperidin-1-yl}-N,N-dimethylbenzamide] | 0.045 µM | 130% | 57.1 µM | 48% | –
10 | CN(C)C(=O)c1ccc(N2CCC(C3CCN(C(=O)C4(c5ccc(Cl)c(Cl)c5)CCC4)CC3)CC2)cc1Cl [Example A-74, 2-chloro-4-(1′-{[1-(3,4-dichlorophenyl)cyclobutyl]carbonyl}-4,4′-bipiperidin-1-yl)-N,N-dimethylbenzamide] | 0.413 µM | 57% | – | 0% | NO IP
11 | CC(C)C(O)(C(=O)N1CCC(C2CCN(c3ccc(C(=O)N4CC(F)(F)C4)c(Cl)c3)CC2)CC1)C(F)(F)F (centres unmarked) [Example E-3, 2-[(1′-{3-chloro-4-[(3,3-difluoroazetidin-1-yl)carbonyl]phenyl}-4,4′-bipiperidin-1-yl)carbonyl]-1,1,1-trifluoro-3-methylbutan-2-ol] | 0.297 µM | 81% | 0.127 µM | 30% | –
12 | CN(C)C(=O)c1ccc(N2CCC(C3CCN(c4ccccc4C(F)(F)F)CC3)CC2)cc1Cl [Example A106, 2-chloro-N,N-dimethyl-4-{1′-[2-(trifluoromethyl)phenyl]-4,4′-bipiperidin-1-yl}benzamide] | 0.526 µM | 91% | 2.11 µM | 27% | –
13 | CN(C(=O)c1ccc(N2CCC(C3CCN(C(=O)[C@](O)(c4ccccc4)C(F)(F)F)CC3)CC2)cc1Cl)C1CCOC1 (stereo partly drawn) [Example E-53, 2-chloro-N-methyl-N-(tetrahydrofuran-3-yl)-4-{1′-[(2R)-3,3,3-trifluoro-2-hydroxy-2-phenylpropanoyl]-4,4′-bipiperidin-1-yl}benzamide] | 0.219 µM | 98% | 1.6 µM | 34% | –
14 | CN(C)C(=O)c1c(Cl)cc(N2CCC(C3CCN(C(=O)c4c(F)cccc4F)CC3)CC2)cc1Cl [Example A-32, 2,6-dichloro-4-{1′-[(2,6-difluorophenyl)carbonyl]-4,4′-bipiperidin-1-yl}-N,N-dimethylbenzamide] | 0.101 µM | 88% | 0.748 µM | 24% | –
15 | CN(C)C(=O)c1ccc(N2CCC(C3CCN(C(=O)c4c(F)cccc4F)CC3)CC2)cc1Cl [Example A-23, 2-chloro-4-{1′-[(2,6-difluorophenyl)carbonyl]-4,4′-bipiperidin-1-yl}-N,N-dimethylbenzamide] | 0.079 µM | 92% | 2.98 µM | 23% | –
16 | CN(C)C(=O)c1ccc(N2CCC(C3CCN(C(=O)C(O)(C4CCC4)C(F)(F)F)CC3)CC2)cc1Cl (centres unmarked) [Example A-10, 2-chloro-4-[1′-(2-cyclobutyl-3,3,3-trifluoro-2-hydroxypropanoyl)-4,4′-bipiperidin-1-yl]-N,N-dimethylbenzamide] | 0.03 µM | 109% | 0.756 µM | 59% | –
17 | CN(C)C(=O)c1ccc(N2CCC(C3CCN(C(=O)c4c(F)cccc4F)CC3)CC2)nc1Cl [Example B-8, 2-chloro-6-{1′-[(2,6-difluorophenyl)carbonyl]-4,4′-bipiperidin-1-yl}-N,N-dimethylpyridine-3-carboxamide] | 0.071 µM | 95% | 0.885 µM | 38% | –
18 | O=C(c1ccc(N2CCC(C3CCN(C(=O)[C@](O)(c4ccccc4)C(F)(F)F)CC3)CC2)cc1Cl)N1CC(N2CCCCC2)C1 [Example E-44, (2R)-3-(1′-{3-chloro-4-[(3-piperidin-1-ylazetidin-1-yl)carbonyl]phenyl}-4,4′-bipiperidin-1-yl)-1,1,1-trifluoro-3-oxo-2-phenylpropan-2-ol] | 0.09 µM | 67% | 1.69 µM | 31% | –
19 | CC(C)C(O)(C(=O)N1CCC(C2CCN(c3ccc(C(=O)N(C)C)c(Cl)c3)CC2)CC1)C1CC1 (centres unmarked) [Example A-110, 2-chloro-4-[1′-(2-cyclopropyl-2-hydroxy-3-methylbutanoyl)-4,4′-bipiperidin-1-yl]-N,N-dimethylbenzmamide] | 0.052 µM | 127% | 1.04 µM | 69% | –
20 | CN(C)C(=O)c1ccc(N2CCC(C3CCN(C(=O)C4(c5ccccc5F)CCC4)CC3)CC2)cc1Cl [Example A-73, 2-chloro-4-(1′-{[1-(2-fluorophenyl)cyclobutyl]carbonyl}-4,4′-bipiperidin-1-yl)-N,N-dimethylbenzamide] | 0.03 µM | 113% | 1.02 µM | 61% | –
21 | O=C1CCN(C(=O)c2ccc(N3CCC(C4CCN(C(=O)[C@](O)(c5ccccc5)C(F)(F)F)CC4)CC3)cc2Cl)C1 [Example E-31] | 0.182 µM | 79% | 2.99 µM | 28% | –
22 | CN(CC1CC1(C)C)C(=O)c1ccc(N2CCC(C3CCN(C(=O)c4c(F)cccc4F)CC3)CC2)cc1Cl (centres unmarked) [Example E-15, 2-chloro-4-{1′-[(2,6-difluorophenyl)carbonyl]-4,4′-bipiperidin-1-yl}-N-[(2,2-dimethylcyclopropyl)methyl]-N-methylbenzamide] | 0.283 µM | 54% | – | 10% | NO IP
23 | O=C(c1ccc(N2CCC(C3CCN(C(=O)[C@](O)(c4ccccc4)C(F)(F)F)CC3)CC2)cc1Cl)N1CCC1CO (stereo partly drawn) [Example E-46, (2R)-3-[1′-(3-chloro-4-{[2-(hydroxymethyl)azetidin-1-yl]carbonyl}phenyl)-4,4′-bipiperidin-1-yl]-1,1,1-trifluoro-3-oxo-2-phenylpropan-2-ol] | 0.395 µM | 55% | 2.25 µM | 27% | –
